Experiments:
[1] = system: β-amyloid production by 7W WT APP751 CHO cells; assay: Measurement of Aβ1-40 and Aβ1-42 by ELISA in culture medium (Example 1, calcium channel blockers); format: cell-based, Chinese hamster
Protocol: Chinese hamster ovary (CHO) cells, stably transfected with human APP751 (7W WT APP751 CHO cells) were used. See, e.g., Koo and Squazzo, J. Biol. Chem., Vol. 269, Issue 26, 17386-17389, July, 1994. The cells were maintained in DMEM medium supplemented with 10% fetal bovine serum and 1× mixture of penicillin/streptomycin/fungizone/glutamine mixture (Cambrex, MD) geneticin as selecting agent in 75 cm^2 cell culture flasks.
(§1) The 7W WT APP751 CHO cells were plated in 24-well cell culture plates in quadruplicate, containing 1 ml of culture medium, and treated with various calcium channel blocker compounds for 4 hours, 24 hours or 48 hours at 37° C. and 5% CO2. All test compounds were diluted in dimethyl sulfoxide (DMSO) before being added to the cultured confluent 7W WT APP751 CHO cells. The culture medium was collected and diluted 5-fold for the 4 hours assay and 50-fold for the 24 hour assay before being assayed by ELISAs for Aβ1-40 and Aβ1-42, respectively. Concentrations of Aβ1-40 and Aβ1-42, expressed in pg/ml, were determined using commercially available ELISAs (Biosource, CA) in a colorimetric assay using labeled antibodies detected spectrophotometrically.
G-sec Inhib XIX, SKF 96365, 2-APB, felodipine, FPL, clotrimazole, tetrandrine, R24571, and econazole are available, as Calbiochem products from EMD Biosciences, Inc., La Jolla, Calif.; nilvadipine, nitrendipine and amlodipine (amlodipine besylate) are available, e.g., from Fujisawa, Osaka, Japan; thapsigargin, BAPTA-AM and TA9 (Tyrphostin A9) are available, e.g., as a Sigma product from Sigma-Aldrich Corp., St. Louis, Mo.; and felodipine, diltiazem, S(−)Bay K8644, R(+)Bay K8644, MRS 1845, SR 33805, loperamide, and isradipine are available from Tocris Cookson Inc., Ellisville, Mo.

[2] = system: β-amyloid production by 7W WT APP751 CHO cells; assay: Screening of dihydropyridine compounds of Table 2, Aβ1-40 and Aβ1-42 (Example 5); format: cell-based, Chinese hamster; conditions: for concentration of Aβ1-40 compared to control: 3 and 10 μM, 24 hours (FIG. 24)
Protocol: as §1
The screening of dihydropyridine compounds was conducted according to the procedure described in Example 1. Each compound was added to confluent cells to a final concentration of 3, 10, 30 or 100 μM and tested. Each of these compounds was added to confluent cells to a final concentration of 3 μM (noted as “C” in FIG. 24) or 10 μM (noted as “B” in FIG. 24).

[3] = 30 μM, cells plated at low density, 24 hours (FIG. 1C)
[4] = 30 μM, cells plated at low density, 48 hours (FIG. 1D)

## COc1ccc2cc1Oc1ccc(cc1)C[C@H]1c3cc(c(OC)cc3CCN1C)Oc1c(OC)c(OC)cc3c1[C@H](C2)N(C)CC3 [tetrandine, tetrandrine]
[1]; 5 μM (FIG. 4)
  concentration of Aβ1-40 compared to controls: significantly decreased
  concentration of total β-amyloid compared to controls: significantly decreased
[1]; 10 μM (FIG. 4)
  concentration of Aβ1-40 compared to controls: significantly decreased
  concentration of total β-amyloid compared to controls: significantly decreased
[1]; 20 μM (FIG. 4)
  concentration of Aβ1-40 compared to controls: significantly decreased
  concentration of total β-amyloid compared to controls: significantly decreased
[1]; 30 μM (FIG. 4)
  concentration of Aβ1-40 compared to controls: significantly decreased
  concentration of total β-amyloid compared to controls: significantly decreased

## Clc1ccccc1C(c1ccccc1)(c1ccccc1)n1ccnc1 [clotrimazole]
[1]; 20 μM (FIG. 4)
  concentration of Aβ1-40 compared to controls: significantly decreased
  concentration of total β-amyloid compared to controls: significantly decreased

## COCCOC(=O)C1=C(C)NC(C)=C(C(=O)OCCOC)C1c1cccc(Br)c1 [Example 3-37]
[2]
  concentration of Aβ1-40 compared to control: decreased

## CC1=C(C(=O)OC(C)(C)C)C(c2ccccc2Br)C(C(=O)OC(C)(C)C)=C(C)N1 [Example 2-32, Di-tert-butyl 4-(2-bromophenyl)-1,4-dihydro-2,6-dimethylpyridine-3,5-dicarboxylate]
[2]; 3, 10, 30 and 100 μM, 24 hours (FIGS. 22A, 22B, 23A, 23B)
  concentration of Aβ1-40 or Aβ1-42 compared to control: decreased

## CCOC(=O)C1=C(C)NC(C)=C(C(=O)OC)C1c1cccc([N+](=O)[O-])c1 (centres unmarked) [nitrendipine]
[1]; 30 μM (FIG. 3)
  concentration of Aβ1-40 compared to controls: significantly decreased
  concentration of total β-amyloid compared to controls: significantly decreased
[1]; [3]
  concentration of Aβ1-40 compared to controls: significantly decreased
[1]; [4]
  concentration of Aβ1-40 compared to controls: significantly decreased

## CCOC(=O)C1=C(C)NC(C)=C(C(=O)OCC)C1c1ccc(Br)cc1F [Example 3-33]
[2]
  concentration of Aβ1-40 compared to control: decreased

## COc1ccc(CCCOC(Cn2ccnc2)c2ccc(OC)cc2)cc1.Cl (stereo not drawn) [SKF 96365, 1-[beta-[3-(4-methoxyphenyl)propoxy]-4-methoxyphenethyl]-1H-imidazole hydrochloride]
[1]; 15 μM, 24 hours (FIG. 1B)
  concentration of Aβ1-40 compared to controls: significantly decreased
[1]; 30 μM (FIG. 2)
  concentration of Aβ1-40 compared to controls: significantly decreased
  concentration of Aβ1-42 compared to controls: significantly decreased
  concentration of total β-amyloid compared to controls: significantly decreased
[1]; 30 μM, 24 hours (FIG. 1B)
  concentration of Aβ1-40 compared to controls: significantly decreased

## C#CCN1C(C)=C(C(=O)OC)C(c2cccc([N+](=O)[O-])c2)C(C(=O)OCC)=C1C (centres unmarked) [MRS 1845, N-propargylnitrendipine]
[1]; 30 μM (FIG. 3)
  concentration of Aβ1-40 compared to controls: significantly decreased
  concentration of total β-amyloid compared to controls: significantly decreased

## Clc1ccc(C(c2ccc(Cl)cc2)[n+]2ccn(CC(OCc3ccc(Cl)cc3Cl)c3ccc(Cl)cc3Cl)c2)cc1.[Cl-] (stereo not drawn) [Example R24571, 1-[bis(p-chlorophenyl)methyl]-3-[2-(2,4-di-chloro-β-(2,4-dichlorobenzyl-oxy)phenethyl)]-imidazolium chloride]
[1]; 5 μM (FIG. 4)
  concentration of Aβ1-40 compared to controls: significantly decreased
  concentration of total β-amyloid compared to controls: significantly decreased

## COC(=O)C1=C(C#N)NC(C)=C(C(=O)OC(C)C)C1c1cccc([N+](=O)[O-])c1 (centres unmarked) [nilvadipine]
[1]; 30 μM (FIG. 3)
  concentration of Aβ1-40 compared to controls: significantly decreased
  concentration of total β-amyloid compared to controls: significantly decreased
[1]; 30 μM, 24 hours (FIG. 1B)
  concentration of Aβ1-40 compared to controls: significantly decreased
[1]; [3]
  concentration of Aβ1-40 compared to controls: significantly decreased
[1]; [4]
  concentration of Aβ1-40 compared to controls: significantly decreased

## CCOC(=O)C1=C(C)NC(C)=C(C(=O)OCC)C1c1cc(Br)ccc1F [Example 47, Diethyl 4-(5-bromo-2-fluorophenyl)-1,4-dihydro-2,6-dimethylpyridine-3,5-dicarboxylate]
other
  melting point: 118 to 119 °C

## CC(=O)C1=C(C)NC(C)=C(C(C)=O)C1c1ccccc1Cl [Example 7, 4-(2-Chlorophenyl)-1,4-dihydro-2,6-dimethylpyridine-3,5-di(2-ethanone)]
other
  melting point: 196 to 197 °C

## CCOC(=O)C1=C(C)NC(C)=C(C(=O)OC)C1c1ccccc1Cl (centres unmarked) [Example 56, 3-Ethyl 5-methyl 4-(2-chlorophenyl)-1,4-dihydro-2,6-dimethylpyridine-3,5-dicarboxylate]
other
  melting point: 125 to 127 °C

## CC1=C(C(=O)OC(C)(C)C)C(c2cccc(Cl)c2)C(C(=O)OC(C)(C)C)=C(C)N1 [Example 21, Di-tert-butyl 4-(3-chlorophenyl)-1,4-dihydro-2,6-dimethylpyridine-3,5-dicarboxylate]
other
  melting point: 189.5 to 190.5 °C

## CN(C)C(=O)C(CCN1CCC(O)(c2ccc(Cl)cc2)CC1)(c1ccccc1)c1ccccc1 [loperamide]
[1]; 30 μM (FIG. 4)
  concentration of Aβ1-40 compared to controls: significantly decreased
  concentration of Aβ1-42 compared to controls: significantly decreased
  concentration of total β-amyloid compared to controls: significantly decreased

## CCOC(=O)C1=C(C)NC(C)=C(C(=O)OCC)C1c1ccccc1Cl [Example 6, Diethyl 4-(2-chlorophenyl)-1,4-dihydro-2,6-dimethylpyridine-3,5-dicarboxylate]
other
  melting point: 120 to 121 °C

## CCOC(=O)C1=C(C)NC(C)=C(C(=O)OCC)C1c1ccc(Br)cc1F [Example 43, Diethyl 4-(4-bromo-2-fluorophenyl)-1,4-dihydro-2,6-dimethylpyridine-3,5-dicarboxylate]
other
  melting point: 154 to 155 °C

## CC(C)(C)c1cc(C=C(C#N)C#N)cc(C(C)(C)C)c1O [tyrphostin A9]
[1]; 20 μM (FIG. 2)
  concentration of Aβ1-40 compared to controls: significantly decreased
  concentration of Aβ1-42 compared to controls: significantly decreased
  concentration of total β-amyloid compared to controls: significantly decreased

## COC(=O)C1=C(C)NC(C)=C(C(C)=O)C1c1ccccc1Br (centres unmarked) [Example 59, Methyl 5-acetyl-4-(2-bromophenyl)-1,4-dihydro-2,6-dimethylpyridine-3-carboxylate]
other
  melting point: 146 to 148 °C

## CC1=C(C(=O)OC(C)(C)C)C(c2ccc(Br)cc2F)C(C(=O)OC(C)(C)C)=C(C)N1 [Example 44, Di-tert-butyl 4-(4-bromo-2-fluorophenyl)-1,4-dihydro-2,6-dimethylpyridine-3,5-dicarboxylate]
other
  melting point: 187 to 188 °C

## CCOC(=O)C1=C(C)NC(C)=C(C(=O)OCC)C1c1cccc(Br)c1 [Example 24, Diethyl 4-(3-bromophenyl)-1,4-dihydro-2,6-dimethylpyridine-3,5-dicarboxylate]
other
  melting point: 125 to 126 °C

## CC1=C(C(=O)OC(C)(C)C)C(c2ccc(Br)cc2)C(C(=O)OC(C)(C)C)=C(C)N1 [Example 27, Di-tert-butyl 4-(4-bromophenyl)-1,4-dihydro-2.6-dimethylpyridine-3,5-dicarboxylate]
other
  melting point: 206 to 207 °C

## COCC1=C(C(=O)OC)C(c2ccc(Br)cc2)C(C(=O)OC)=C(COC)N1 [Example 53, Dimethyl 4-(4-bromophenyl)-1,4-dihydro-2,6-bis(methoxymethyl)pyridine-3,5-dicarboxylate]
other
  melting point: 162 to 163 °C

## CCOC(=O)C1=C(C)NC(C)=C(C(=O)OCC)C1c1cccc(Cl)c1Cl [Example 31, Diethyl 4-(2,3-dichlorophenyl)-1,4-dihydro-2,6-dimethylpyridine-3,5-dicarboxylate]
other
  melting point: 125 to 126 °C

## CCOC(=O)C1=C(C)NC(C)=C(C(=O)OCC)C1c1cccc(F)c1F [Example 38, Diethyl 4-(2,3-difluorophenyl)-1,4-dihydro-2,6-dimethylpyridine-3,5-dicarboxylate]
other
  melting point: 161 to 162 °C

## CCOC(=O)C1=C(C)NC(C)=C(C(=O)OC)C1c1ccccc1Br (centres unmarked) [Example 58, 3-Ethyl 5-methyl 4-(2-bromophenyl)-1,4-dihydro-2,6-dimethylpyridine-3,5-dicarboxylate]
other
  melting point: 134.5 to 135.5 °C

## CC1=C(C(=O)OC(C)(C)C)C(c2cccc(Cl)c2Cl)C(C(=O)OC(C)(C)C)=C(C)N1 [Example 32, Di-tert-butyl 4-(2,3-dichlorophenyl)-1,4-dihydro-2,6-dimethylpyridine-3,5-dicarboxylate]
other
  melting point: 144 to 145 °C

## CC1=C(C(=O)OC(C)(C)C)C(c2ccc(Cl)cc2)C(C(=O)OC(C)(C)C)=C(C)N1 [Example 23, Di-tert-butyl 4-(4-chlorophenyl)-1,4-dihydro-2,6-dimethylpyridine-3,5-dicarboxylate]
other
  melting point: 191.5 to 192.5 °C
